Test results: patent US8969312B2, “Low side effect pharmaceutical composition containing antituberculosis drugs” (priority 2011, dated 2015)

tested on: Male SD (Sprague-Dawley) rats; assay: Rat study of INH combined with DSF and/or BNPP (AST, ALT, histology, 8-iso-PGF2α, GSP, GEC); assay type: in vivo; conditions: 21 days
Experimental: The body weight of the rats was monitored throughout the experiment. Rats were anesthetized with sodium pentobarbital intraperitoneally (i.p.) at the dose of 50 mg/kg and Galactose was injected intravenously through a polyethylene catheter positioned in internal jugular vein. The catheter was positioned by cut-down technique and its end was embedded under the skin behind the neck. After the surgery, the rats were fasted overnight during the recovery period (about 16 hours) with unrestricted water access.
Animals were randomized into one of five groups, each involving three treatments. The first treatment involved either a BNPP injection of 25 mg/kg or a BNPP vehicle (VEH1) injection (saline). […] The second treatment involved injections of either 100 mg/kg DSF or DSF vehicle (VEH2, corn oil). DSF was dissolved in corn oil and i.p. injected at a volume of […]. The third treatment involved injections of INH (25 mg/kg) or INH vehicle (VEH3, saline). INH was dissolved in saline (0.9% NaCl), and i.p. injected at a volume of […]. The first treatment (BNPP or VEH1) was administered 30 minutes before the third treatment (INH or VEH3), and the second treatment (DSF or VEH2) was administered 15 minutes before the third treatment (INH or VEH3).
Galactose elimination capacity (GEC) test was performed 16 hours […] at the end of 21 days-treatment to measure the liver function.
After 21 days treatment, the rats were sacrificed with ether and blood samples collected in test tubes containing EDTA by dorsal aorta extract. The blood samples were centrifuged at 13,000 g for 15 min at 4° C. and plasma was aliquot into eppendorf tubes and stored at −80° C.
After the rats were sacrificed, the livers were subjected to histology analysis.
All isomers of PGF2α were dissolved or diluted in adequate amount of ethanol and after aliquot, stored at −70° C. As an internal standard, 10 ng of 8-iso-PGF2α-d4 was mixed with 0.5 ml of plasma in a glass tube and was then purified by a C18 Solid-Phase Extraction column (J. T. Baker, MA, USA). Sample eluants were evaporated under a stream of nitrogen and re-dissolved in 50 μl acetonitrile:water (15:85 v/v) solution followed by vortex for 30 seconds and 10 μl extract was further analyzed with a LC/MS/MS system.
Shimadzu system control and one Shimadzu autosampler (Shimadzu, Japan). HPLC purification of the extract by C18 column (mesh size 5-μm, diameter 50×2.1 mm) using 2 mM ammonium acetate/acetonitrile, ACN gradient as mobile phase (t=0 mM, 15% ACN; t=6 mM, 70% ACN; t=7 mM, 90% ACN; t=8 mM, 90% ACN; t=8.5 min, 15% ACN). […] Such HPLC system was connected to a triple stage quadrupole mass spectrometer (API3000, Applied Biosystem, Foster City, Calif., USA) and is equipped with a Turbo Ion Spray ionization source, and uses negative electrospray for ionization. Such spectrophotometer uses diffusion of standard solution of 200 ng/ml 8-iso-PGF2α or 8-iso-PGF2α-d4 to optimize the mode for multiple reaction monitoring (MRM).
All rats were subjected to GSP and GEC tests.

Molecule `NNC(=O)c1ccncc1` [INH, isoniazid] has a GEC values of 3.4±0.6 mg/min·kg.

same assay, conditions: i.p. once daily 21 days

For `NNC(=O)c1ccncc1` [INH, isoniazid], the “plasma ALT activities” value was 52±3 IU/L.

With `NNC(=O)c1ccncc1` [INH, isoniazid] the “plasma AST activities” value was 129±10 IU/L.

For `NNC(=O)c1ccncc1` [INH, isoniazid], the “plasma concentrations of 8-iso-PGF2α” value was 0.151 ± 0.026 ng/mL.

same assay, conditions: three weeks, H&E, EM, in words

For `NNC(=O)c1ccncc1` [INH, isoniazid], the liver histopathology was “showed hepatocellular damage”.

target: cytochrome P450 2E1 (CYP2E1) (Homo sapiens, UniProt P05181); assay: CYP2E1 High Throughput Inhibitor Screening Kit, cDNA synthesized microsomal CYP2E1 (MFC to HFC); conditions: 16.5 μM
Sequence (P05181 whole entry): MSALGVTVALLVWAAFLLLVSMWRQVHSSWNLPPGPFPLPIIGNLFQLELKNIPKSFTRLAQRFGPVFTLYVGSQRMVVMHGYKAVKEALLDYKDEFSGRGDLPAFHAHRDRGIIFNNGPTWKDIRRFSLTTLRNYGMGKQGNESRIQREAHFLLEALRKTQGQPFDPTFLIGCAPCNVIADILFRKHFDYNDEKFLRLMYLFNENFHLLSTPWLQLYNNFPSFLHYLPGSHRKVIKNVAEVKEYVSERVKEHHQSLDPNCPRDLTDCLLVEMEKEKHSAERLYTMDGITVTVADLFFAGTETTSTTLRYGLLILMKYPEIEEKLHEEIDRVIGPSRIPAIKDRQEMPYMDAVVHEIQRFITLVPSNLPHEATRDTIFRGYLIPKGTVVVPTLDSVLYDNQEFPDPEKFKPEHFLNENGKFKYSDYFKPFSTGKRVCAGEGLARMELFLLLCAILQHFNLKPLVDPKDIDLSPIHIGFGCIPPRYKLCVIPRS
From the text: CYP2E1 High Throughput Inhibitor Screening Kit (BD Bioscience, USA) was used to screen the cytochrome P450 (CYP2E1) inhibitors from 22 Chinese medicine guiding drugs and 10 excipients and microsomal cytochrome P450 (CYP2E1) was synthesized from cDNA (BD Bioscience, USA). The principle of the screening kit is to measure the percentage of CYP2E inhibition, after adding the test sample to substrate MFC (7-Methoxy-4-trifluoromethyl coumarin) and cytochrome P450 (CYP2E1), by measuring the synthesis of standard CYP2E1 metabolite (HFC, 7-Hydroxy-4-trifluoromethyl coumarin) and use control HFC as baseline.
a. 149 μl NADPH-Cofactor Mix and 1 μl 20 mM DDTC were added to the #1 well in a 96-well plate and mixed thoroughly,
b. Add 100 μl Cofactor/acetonitrile mix to #2 to #12 wells, and well #1 to #8 are positive control. Well #9 and 10 are control and well #11 and #12 are blank,
c. […] Preparation of Experimental Groups: a. […] Transfer 50 μl from well #1 and #2 and added to well #3 and mixed thoroughly (triplicate for each sample), 3. Initiation and Termination of the Reaction: a. The 96-well plate was incubated at 37° C. for […], b. 100 μl of Enzyme/Substrate Mix was added to every well and mixed thoroughly except the blank wells, c. The 96-well plate was incubated at 37° C. for 40 min, d. 75 μl Stop Solution was added to every well and mixed thoroughly, e. Immediately add 100 μl Enzyme/Substrate Mix to blank wells and mixed thoroughly, f. Measure with a Fluoroskan Ascent FL (Thermo Electron Corporation, Finland) with excitation at 405 nm and emission at 538 nm, 4. The fluorescence was transverse into CYP 2E1 metabolite standard (HFC) concentration (pmol) and the percentage (%) of CYP 2E1 inhibition was calculated using control as baseline by following equation: […]

Point of comparison: `Oc1cc(O)c2c(c1)O[C@H](c1ccc(O)c(O)c1)[C@@H](O)C2` [(+)-Catechin], “Inhibition of CYP 2E1” value 41.53%. Against it:
- COc1c(O)cc2oc(Oc3ccc(O)cc3)cc(=O)c2c1O [Capillarisin] — higher, 49.05%

same assay, conditions: 66 μM

Point of comparison: `COc1c(O)cc2oc(Oc3ccc(O)cc3)cc(=O)c2c1O` [Capillarisin], “Inhibition of CYP 2E1” value 76.12%. Against it:
- Oc1cc(O)c2c(c1)O[C@H](c1ccc(O)c(O)c1)[C@@H](O)C2 [(+)-Catechin] — lower, 16.45%

same assay, conditions: Table 3; minimum tested concentration (mg/L) × volume of human liver and intestine (3L)

Point of comparison: `O=C(CCc1ccc(O)cc1)c1c(O)cc(O)cc1O` [Phloretin], “Minimum Effective Dose” value 15 mg. Against it:
- COc1ccc([C@@H]2CC(=O)c3c(O)cc(O)cc3O2)cc1O [Hesperetin] — higher, 33 mg
- CC(Cc1ccc(O)c(O)c1)C(C)Cc1ccc(O)c(O)c1 (centres unmarked) [Nordihydroguaiaretic acid] — higher, 17 mg
- CCCCC[C@H](O)CC(=O)CCc1ccc(O)c(OC)c1 [6-Gingerol] — higher, 16 mg
- COc1c(O)cc2oc(Oc3ccc(O)cc3)cc(=O)c2c1O [Capillarisin] — higher, 17 mg
- Oc1cc(O)c2c(c1)O[C@H](c1ccc(O)c(O)c1)[C@@H](O)C2 [(+)-Catechin] — higher, 16 mg

tested on: amidase; assay: Mouse liver microsomal amidase, isoniazid to isonicotinic acid; assay type: biochemical; conditions: 1 uM
From the text: Mouse liver microsomes were used as the source of amidase, and isoniazid was used as the amidase metabolism drugs. quantitative isoniazid was catalyzed into metabolites isonicotinic acid (INA) by amidase, and was used as the index for measurement of the amidase activity for establishment of the platform for screening in vitro amidase activity inhibitors. The HPLC system includes a Shimadzu the LC-LOAD pump, 1 Shimadzu system control and a Shimadzu autosampler (Shimadzu Scientific Instrument, Japan). A C18 column (particle size 5 μm, inner diameter of 50×4.6 mm, 25 cm) containing 70% methanol and 30% ammonium formate (50 mM, pH=2.5) of the mobile phase for HPLC separation, and the experimental steps are outlined as follows:
(2) An aliquot of 150 μL mouse liver microsomal solution was added to 100 μL isoniazid solution in 35 μL 67 mM potassium phosphate buffer solution ([…], pH=7) with a final concentration at 3 mM, and then mixed thoroughly with 15 μL amidase inhibitor (deionized water was added in the control group). (3) Incubation at 37° C. water bath for 30 minutes. (4) An aliquot of 300 μL acetonitrile (ACN) was added and mixed thoroughly, and incubated for 6 minutes. (5) An aliquot of 30 μL perchloric acid was then mixed and incubated for 6 minutes. (6) The mixture was centrifuged at 13000 g for 6 minutes. (7) After centrifugation, 100 μL of the supernatant was injected into HPLC. (8) Methanol ammonium formate (50 mM, pH=2.5)=70:30 (V/V) was selected as the mobile phase, and the flow rate was controlled at […] and detected at 270 nm UV. […] The amidase inhibition % was then calculated using the following formula: […]

Point of comparison: `COc1c(O)cc2oc(Oc3ccc(O)cc3)cc(=O)c2c1O` [Capillarisin], Amidase inhibition −4.1 ± 8.1%. Against it:
- COc1ccc([C@@H]2CC(=O)c3c(O)cc(O)cc3O2)cc1O [Hesperetin] — lower, −40.5 ± 24.8%
- O=C(CCc1ccc(O)cc1)c1c(O)cc(O)cc1O [Phloretin] — within error, 16.5 ± 14.3%
- CCCCC[C@H](O)CC(=O)CCc1ccc(O)c(OC)c1 [6-Gingerol] — within error, −8.2 ± 9.0%
- Oc1cc(O)c2c(c1)O[C@H](c1ccc(O)c(O)c1)[C@@H](O)C2 [(+)-Catechin] — within error, −2.1 ± 1.1%

same assay, conditions: 10 uM

Point of comparison: `COc1ccc([C@@H]2CC(=O)c3c(O)cc(O)cc3O2)cc1O` [Hesperetin], Amidase inhibition 5.4 ± 2.5%. Against it:
- O=C(CCc1ccc(O)cc1)c1c(O)cc(O)cc1O [Phloretin] — within error, 9.8 ± 5.4%
- CCCCC[C@H](O)CC(=O)CCc1ccc(O)c(OC)c1 [6-Gingerol] — lower, 0.5 ± 0.7%
- COc1c(O)cc2oc(Oc3ccc(O)cc3)cc(=O)c2c1O [Capillarisin] — higher, 18.2 ± 3.7%
- Oc1cc(O)c2c(c1)O[C@H](c1ccc(O)c(O)c1)[C@@H](O)C2 [(+)-Catechin] — within error, −11.8 ± 20.2%

same assay, conditions: 100 uM

Point of comparison: `O=C(CCc1ccc(O)cc1)c1c(O)cc(O)cc1O` [Phloretin], Amidase inhibition 29.9 ± 8.1%. Against it:
- COc1ccc([C@@H]2CC(=O)c3c(O)cc(O)cc3O2)cc1O [Hesperetin] — within error, 19.0 ± 3.6%
- CCCCC[C@H](O)CC(=O)CCc1ccc(O)c(OC)c1 [6-Gingerol] — within error, 22.6 ± 3.4%
- COc1c(O)cc2oc(Oc3ccc(O)cc3)cc(=O)c2c1O [Capillarisin] — higher, 45.7 ± 4.2%
- Oc1cc(O)c2c(c1)O[C@H](c1ccc(O)c(O)c1)[C@@H](O)C2 [(+)-Catechin] — lower, 1.3 ± 6.3%

target: human liver microsomal cytochrome P450 2E1 (CYP2E1) (Homo sapiens, UniProt P05181); assay: Human liver microsomal CYP2E1, chlorzoxazone 6-hydroxylation; conditions: 16.5 μM;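 note: chlorzoxazone added as substrate, 6-hydroxychlorzoxazone formation quantified by LC/MS/MS after 30 min at 37 °C with NADP+ regenerating system, compared against solvent control without test sample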
Sequence (P05181 whole entry): as above

For `COc1c(O)cc2oc(Oc3ccc(O)cc3)cc(=O)c2c1O` [Capillarisin], the “Inhibition of CYP 2E1” value was 32.89 ± 2.46%.

same assay, conditions: 33 μM

`COc1c(O)cc2oc(Oc3ccc(O)cc3)cc(=O)c2c1O` [Capillarisin] was tested, and the “Inhibition of CYP 2E1” value was 46.22 ± 2.65%.

same assay, conditions: 66 μM

`COc1c(O)cc2oc(Oc3ccc(O)cc3)cc(=O)c2c1O` [Capillarisin] was tested, and the “Inhibition of CYP 2E1” value was 57.31 ± 1.31%.

same assay, conditions: Table 6; minimum tested concentration (mg/L) × volume of human liver and intestine (3 L)

Point of comparison: `COc1ccc([C@@H]2CC(=O)c3c(O)cc(O)cc3O2)cc1O` [Hesperetin], “Minimum Effective Dose” value 17 mg. Against it:
- CC(Cc1ccc(O)c(O)c1)C(C)Cc1ccc(O)c(O)c1 (centres unmarked) [Nordihydroguaiaretic acid] — the same, 17 mg
- O=C(CCc1ccc(O)cc1)c1c(O)cc(O)cc1O [Phloretin] — lower, 15 mg
- CCCCC[C@H](O)CC(=O)CCc1ccc(O)c(OC)c1 [6-Gingerol] — lower, 16 mg
- COc1c(O)cc2oc(Oc3ccc(O)cc3)cc(=O)c2c1O [Capillarisin] — the same, 17 mg
